Data as given in patent publication US12180193B2, “Accelerating fibrosarcoma protein degrading compounds and associated methods of use” (Arvinas Operations, Inc., priority 2020, dated 2024).
Read-outs that look alike come from different tables or passages of the source.

How the values were obtained:
BRAF V600E = target: T1, BRAF V600E (Homo sapiens, UniProt P15056, V600E); test: Cellular assay of target protein degradation, T-Rex 293 cells stably transfected with HA-BRAF_V600E (HA immunofluorescence, high content imaging); type: cell-based
T1 construct: expressed in transfected cells
Outline: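 Degradation of the HA-tagged construct is measured after 24 h treatment at 37 °C across 1 μM to 0.1 nM in 0.1% DMSO, in doxycycline-induced (1 ng/mL) cells. DC50 and Dmax come from HA fluorescence imaging.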

BRAF G466V = target: T2, BRAF G466V (Homo sapiens, UniProt P15056, G466V); test: Cellular assay of target protein degradation, T-Rex 293 cells stably transfected with HA-BRAF G466V (HA immunofluorescence, high content imaging); type: cell-based
T2 construct: expressed in transfected cells
Outline: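 Dose range spans 30 nM to 3 pM (0.1% DMSO) over 24 hours at 37° C, in cells induced with 0.75 ng/mL doxycycline. Fixed cells are probed with anti-HA antibody overnight at 4° C, then imaged; half-maximal degradation and maximum degradation are derived.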

[1] = half maximal degradation, T-Rex 293 HA-BRAF V600E; read-out: BRaf V600E DC50
[2] = half maximal degradation, T-Rex 293 HA-BRAF G466V; read-out: BRaf G466V DC50
[3] = maximum degradation observed, T-Rex 293 HA-BRAF V600E
[4] = maximum degradation observed, T-Rex 293 HA-BRAF G466V

T1 sequence (P15056 whole entry V600E): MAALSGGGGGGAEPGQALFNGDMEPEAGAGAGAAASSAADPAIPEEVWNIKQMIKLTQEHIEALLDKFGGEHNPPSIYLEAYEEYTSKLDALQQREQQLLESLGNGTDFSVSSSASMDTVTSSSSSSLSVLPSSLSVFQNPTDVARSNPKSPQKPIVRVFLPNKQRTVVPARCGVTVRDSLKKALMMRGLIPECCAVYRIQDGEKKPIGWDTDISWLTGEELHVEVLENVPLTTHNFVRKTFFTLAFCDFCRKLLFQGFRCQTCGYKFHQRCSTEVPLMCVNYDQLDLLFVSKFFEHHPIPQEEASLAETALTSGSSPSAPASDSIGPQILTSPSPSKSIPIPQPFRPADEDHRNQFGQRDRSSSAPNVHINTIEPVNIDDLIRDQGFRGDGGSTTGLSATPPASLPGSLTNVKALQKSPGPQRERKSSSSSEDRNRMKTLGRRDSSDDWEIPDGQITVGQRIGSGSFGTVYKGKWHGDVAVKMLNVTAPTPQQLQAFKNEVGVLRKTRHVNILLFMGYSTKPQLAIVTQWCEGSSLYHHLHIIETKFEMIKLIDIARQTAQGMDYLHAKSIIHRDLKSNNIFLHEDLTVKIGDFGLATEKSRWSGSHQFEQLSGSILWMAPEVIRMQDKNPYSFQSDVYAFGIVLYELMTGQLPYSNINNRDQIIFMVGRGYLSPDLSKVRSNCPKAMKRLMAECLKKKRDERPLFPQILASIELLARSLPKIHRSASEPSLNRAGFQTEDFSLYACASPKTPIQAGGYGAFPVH
T2 sequence (P15056 whole entry G466V): as the sequence (P15056 whole entry V600E) above, with G466V, E600V counted along it

Row | Compound | DC50 (BRAF V600E; [1]) [nM] | DC50 (BRAF G466V; [2]) [nM] | Dmax (BRAF V600E; [3]) [%] | Dmax (BRAF G466V; [4]) [%] | DC50 (BRAF V600E; read-out: BRaf V600E DC50; half maximal degradation, T-Rex 293 HA-BRAF V600E) [nM] | DC50 (BRAF G466V; read-out: BRaf G466V DC50; half maximal degradation, T-Rex 293 HA-BRAF G466V) [nM]
1 | CN1C(=O)CCC(N2Cc3cc(C4CCN(CC5CCN(c6ccc(-c7cnc8[nH]cc(C(=O)c9c(F)ccc(NS(=O)(=O)N%10CC[C@@H](F)C%10)c9F)c8c7)cc6)CC5)CC4)ccc3C2=O)C1=O (stereo partly drawn) [Compound 169, (3R)-N-[2,4-difluoro-3-(5-{4-[4-({4-[2-(1-methyl-2,6-dioxopiperidin-3-yl)-1-oxo-2,3-dihydro-1H-isoindol-5-yl]piperidin-1-yl}methyl)piperidin-1-yl]phenyl}-1H-pyrrolo[2,3-b]pyridine-3-carbonyl)phenyl]-3-fluoropyrrolidine-1-sulfonamide] | > 500 | > 30 |  |  |  | 
2 | O=C1CC[C@H](N2Cc3cc(C[C@H](O)CN4CC5(C4)CN(c4ccc(-c6cnc7[nH]cc(C(=O)c8c(F)ccc(NS(=O)(=O)N9CC[C@@H](F)C9)c8F)c7c6)cc4)C5)ccc3C2=O)C(=O)N1 [Compound 170, (3R)-N-{3-[5-(4-{6-[(2S)-3-{2-[(3S)-2,6-dioxopiperidin-3-yl]-1-oxo-2,3-dihydro-1H-isoindol-5-yl}-2-hydroxypropyl]-2,6-diazaspiro[3.3]heptan-2-yl}phenyl)-1H-pyrrolo[2,3-b]pyridine-3-carbonyl]-2,4-difluorophenyl}-3-fluoropyrrolidine-1-sulfonamide] | 50 to 500 | 1 to 10 | 35 to 70 | > 70 |  | 
3 | O=C1CC[C@H](N2Cc3cc(CC[C@H](O)CN4CC5(C4)CN(c4ccc(-c6cnc7[nH]cc(C(=O)c8c(F)ccc(NS(=O)(=O)N9CC[C@@H](F)C9)c8F)c7c6)cc4)C5)ccc3C2=O)C(=O)N1 [Compound 172, (3R)-N-{3-[5-(4-{6-[(2S)-4-{2-[(3S)-2,6-dioxopiperidin-3-yl]-1-oxo-2,3-dihydro-1H-isoindol-5-yl}-2-hydroxybutyl]-2,6-diazaspiro[3.3]heptan-2-yl}phenyl)-1H-pyrrolo[2,3-b]pyridine-3-carbonyl]-2,4-difluorophenyl}-3-fluoropyrrolidine-1-sulfonamide] | 5 to 50 | 1 to 10 | 35 to 70 | > 70 |  | 
4 | O=C1CCC(N2Cc3cc(C4CCN(C[C@@H]5C[C@H]6CC[C@@H](C5)N6c5ccc(-c6cnc7[nH]cc(C(=O)c8c(F)ccc(NS(=O)(=O)N9CC[C@@H](F)C9)c8F)c7c6)cc5)CC4)ccc3C2=O)C(=O)N1 (stereo partly drawn) [Compound 180, (3R)-N-[3-(5-{4-[(1R,3S,5S)-3-({4-[2-(2,6-dioxopiperidin-3-yl)-1-oxo-2,3-dihydro-1H-isoindol-5-yl]piperidin-1-yl}methyl)-8-azabicyclo[3.2.1]octan-8-yl]phenyl}-1H-pyrrolo[2,3-b]pyridine-3-carbonyl)-2,4-difluorophenyl]-3-fluoropyrrolidine-1-sulfonamide] | 5 to 50 | 1 to 10 | 35 to 70 | > 70 |  | 
5 | O=C1CCC(N2Cc3cc(N4CCC(CC5CCN(c6ccc(-c7cnc8[nH]cc(C(=O)c9c(F)ccc(NS(=O)(=O)N%10CC[C@@H](F)C%10)c9F)c8c7)cc6)CC5)CC4)ccc3C2=O)C(=O)N1 (stereo partly drawn) [Compound 181, (3R)-N-[3-(5-{4-[4-({1-[2-(2,6-dioxopiperidin-3-yl)-1-oxo-2,3-dihydro-1H-isoindol-5-yl]piperidin-4-yl}methyl)piperidin-1-yl]phenyl}-1H-pyrrolo[2,3-b]pyridine-3-carbonyl)-2,4-difluorophenyl]-3-fluoropyrrolidine-1-sulfonamide] |  |  | < 35 | 35 to 70 | 50 to 500 | 10 to 30
6 | CN(CCN1CCN(c2ccc3c(c2)CN(C2CCC(=O)NC2=O)C3=O)CC1)[C@H]1C[C@@H](Oc2ccc(-c3cnc4[nH]cc(C(=O)c5c(F)ccc(NS(=O)(=O)N6CC[C@@H](F)C6)c5F)c4c3)cc2)C1 (stereo partly drawn) [Compound 182, (3R)-N-[2,4-difluoro-3-(5-{4-[(1s,3s)-3-[(2-{4-[2-(2,6-dioxopiperidin-3-yl)-1-oxo-2,3-dihydro-1H-isoindol-5-yl]piperazin-1-yl}ethyl)(methyl)amino]cyclobutoxy)phe-nyl}-1H-pyrrolo[2,3-b]pyridine-3-carbonyl)phenyl]-3-fluoropyrrolidine-1-sulfonamide] | 50 to 500 | 1 to 10 | 35 to 70 | > 70 |  | 

Further lines, with some results ahead:

Row | DC50 (BRAF V600E; [1]) [nM] | DC50 (BRAF G466V; [2]) [nM] | Dmax (BRAF V600E; [3]) [%] | Dmax (BRAF G466V; [4]) [%] | Compound | DC50 (BRAF V600E; read-out: BRaf V600E DC50; half maximal degradation, T-Rex 293 HA-BRAF V600E) [nM] | DC50 (BRAF G466V; read-out: BRaf G466V DC50; half maximal degradation, T-Rex 293 HA-BRAF G466V) [nM]
7 | 5 to 50 | 1 to 10 | 35 to 70 | > 70 | O=C1CC[C@@H](N2Cc3cc(CC[C@H](O)CN4CC5(C4)CN(c4ccc(-c6cnc7[nH]cc(C(=O)c8c(F)ccc(NS(=O)(=O)N9CC[C@@H](F)C9)c8F)c7c6)cc4)C5)ccc3C2=O)C(=O)N1 [Compound 173, (3R)-N-{3-[5-(4-{6-[(2S)-4-{2-[(3R)-2,6-dioxopiperidin-3-yl]-1-oxo-2,3-dihydro-1H-isoindol-5-yl}-2-hydroxybutyl]-2,6-diazaspiro[3.3]heptan-2-yl}phenyl)-1H-pyrrolo[2,3-b]pyridine-3-carbonyl]-2,4-difluorophenyl}-3-fluoropyrrolidine-1-sulfonamide] |  | 
8 | 5 to 50 | 1 to 10 | < 35 | > 70 | O=C1CCC(N2Cc3cc(N4CCC(CN5CCC(C6(c7ccc(-c8cnc9[nH]cc(C(=O)c%10c(F)ccc(NS(=O)(=O)N%11CC[C@@H](F)C%11)c%10F)c9c8)cc7)CC6)CC5)CC4)ccc3C2=O)C(=O)N1 (stereo partly drawn) [Compound 174, (3R)-N-{3-[5-(4-{1-[1-({1-[2-(2,6-dioxopiperidin-3-yl)-1-oxo-2,3-dihydro-1H-isoindol-5-yl]piperidin-4-yl}methyl)piperidin-4-yl]cyclopropyl}phenyl)-1H-pyrrolo[2,3-b]pyridine-3-carbonyl]-2,4-difluorophenyl}-3-fluoropyrrolidine-1-sulfonamide] |  | 
9 | 5 to 50 | < 1 | 35 to 70 | > 70 | COc1cc(C2CCN(CC3CCN(c4ncc(-c5cnc6[nH]cc(C(=O)c7c(F)ccc(NS(=O)(=O)N8CC[C@@H](F)C8)c7F)c6c5)cn4)CC3)CC2)cc2c1C(=O)N(C1CCC(=O)NC1=O)C2 (stereo partly drawn) [Compound 175, (3R)-N-[3-(5-{2-[4-({4-[2-(2,6-dioxopiperidin-3-yl)-7-methoxy-1-oxo-2,3-dihydro-1H-isoindol-5-yl]piperidin-1-yl}methyl)piperidin-1-yl]pyrimidin-5-yl}-1H-pyrrolo[2,3-b]pyridine-3-carbonyl)-2,4-difluorophenyl]-3-fluoropyrrolidine-1-sulfonamide] |  | 
10 | 5 to 50 | 1 to 10 | < 35 | 35 to 70 | CC1(c2ccc(C3CCN(CC4CCN(c5ccc(-c6cnc7[nH]cc(C(=O)c8c(F)ccc(NS(=O)(=O)N9CC[C@@H](F)C9)c8F)c7c6)cc5)CC4)CC3)cc2F)CCC(=O)NC1=O (stereo partly drawn) [Compound 176, (3R)-N-[2,4-difluoro-3-(5-{4-[4-({4-[3-fluoro-4-(3-methyl-2,6-dioxopiperidin-3-yl)phenyl]piperidin-1-yl}methyl)piperidin-1-yl]phenyl}-1H-pyrrolo[2,3-b]pyridine-3-carbonyl)phenyl]-3-fluoropyrrolidine-1-sulfonamide] |  | 
11 | < 5 | < 1 | 35 to 70 | > 70 | O=C1CCC(N2Cc3cc(C4CCN(CC5CCN(c6ccc(-c7cnc8[nH]cc(C(=O)c9c(F)ccc(NS(=O)(=O)N%10CCCC%10)c9F)c8c7)cc6)CC5)CC4)ccc3C2=O)C(=O)N1 (centres unmarked) [Compound 177, N-[3-(5-{4-[4-({4-[2-(2,6-dioxopiperidin-3-yl)-1-oxo-2,3-dihydro-1H-isoindol-5-yl]piperidin-1-yl}methyl)piperidin-1-yl]phenyl}-1H-pyrrolo[2,3-b]pyridine-3-carbonyl)-2,4-difluorophenyl]pyrrolidine-1-sulfonamide] |  | 
12 | 5 to 50 | 1 to 10 | < 35 | > 70 | O=C1CCC(c2ccc(C3CCN(CCC4CCN(c5ccc(-c6cnc7[nH]cc(C(=O)c8c(F)ccc(NS(=O)(=O)N9CC[C@@H](F)C9)c8F)c7c6)cc5)CC4)CC3)cc2F)C(=O)N1 (stereo partly drawn) [Compound 178, (3R)-N-[3-(5-{4-[4-(2-{4-[4-(2,6-dioxopiperidin-3-yl)-3-fluorophenyl]piperidin-1-yl}ethyl)piperidin-1-yl]phenyl}-1H-pyrrolo[2,3-b]pyridine-3-carbonyl)-2,4-difluorophenyl]-3-fluoropyrrolidine-1-sulfonamide] |  | 
13 | 5 to 50 | 1 to 10 | 35 to 70 | > 70 | O=C1CCC(N2Cc3cc(C4CCN(C[C@@H]5[C@H]6CN(c7ccc(-c8cnc9[nH]cc(C(=O)c%10c(F)ccc(NS(=O)(=O)N%11CC[C@@H](F)C%11)c%10F)c9c8)cc7)C[C@@H]56)CC4)ccc3C2=O)C(=O)N1 (stereo partly drawn) [Compound 179, (3R)-N-[3-(5-{4-[(1R,5S,6S)-6-({4-[2-(2,6-dioxopiperidin-3-yl)-1-oxo-2,3-dihydro-1H-isoindol-5-yl]piperidin-1-yl}methyl)-3-azabicyclo[3.1.0]hexan-3-yl]phenyl}-1H-pyrrolo[2,3-b]pyridine-3-carbonyl)-2,4-difluorophenyl]-3-fluoropyrrolidine-1-sulfonamide] |  | 
